Experimental data published in patent publication US5015742A, “Synthesis and elucidation of azamitosene and iminoazamitosene” (Arizona Board of Regents, priority 1990, dated 1991).
“Also recorded” adds a separate entry of the source. One block for each compound: values may come before it.

Experiments:
[1] = test system: cloned human ovarian cancer cell lines; assay: Antitumor activity in cloned human ovarian cancer cell lines; type: cell-based
[2] = test system: fresh human ovarian tumors; assay: Antitumor activity in fresh human ovarian tumors; type: cell-based
fresh human colon tumors = assay: Antitumor activity in fresh human colon tumors; type: cell-based
[3] = test system: cloned human colon cancer cell lines; assay: Antitumor activity in cloned human colon cancer cell lines; type: cell-based
[4] = pKa by spectrophotometric titration; type: physicochemical; settings: water, 1.0 m kcl
Protocol: pKa constants were determined by spectrophotometric titration in μ=1.0 (KCl) aerobic aqueous solvent at 30°±0.2° C. with a Cary 15 outfitted with a titration cell. Acid dissociations from hydroquinones in strong base were measured under an argon atmosphere with Thunberg cuvettes. Details of the methodoloqy employed are found in a previous publication.

[5] = Two-electron reduction potentials by cyclic voltammetry and Nernst fit
Protocol: Quinone 1a and iminoquinone 2a two-electron reduction potentials were determined in anaerobic aqueous buffers (μ=1, NaClO4) at 25° C. over the pH range -1 to 10 employing conventional cyclic voltammetry. The working electrode was a graphite mull, the auxillary electrode was platinum, and the reference couple was Ag/AgCl.
The pKa values, with error limits, were determined. spectrophotometrically.
The determination of Em values was carried out with a BAS 27 voltammograph. Measurements were carried out in μ=1.0 (NaClO4) aqueous buffer at 25°-26° C. under an atmosphere of argon with a BAS Ag/AgCl gel electrode as reference. […] The midpoint potential Em was determined from the average of the anodic (Ep,a) and cathodic (Ep,c) potentials.
For each of the redox couples, 1a/20 and 2a/19, >20 Em determinations were made over the pH range studied. For each Em value of a couple, and Eo value was calculated from the Nernst equation substituted with the acid dissociation constants in Table I and the proton activity determined with a pH meter. The average of all Eo determinations was then substituted into the Nernst equation, with which the solid curve for the couple was generated.

[6] = Kinetics of hydrolysis and syn/anti isomerization in aqueous buffer; type: physicochemical; settings: for pKa: aqueous buffer
From the text: Iminoquinone Fate in Aqueous Buffers. […] Outlined in Scheme 4 below, are the pertinent equilibria and hydrolytic reactions of 2a in aqueous buffer. Above pH 7, the predominate reaction is equilibrium formation of a syn/anti mixture of 2a by general acid/base catalyzed processes. Much below pH 7, the predominate reaction is acid-catalyzed hydrolysis of 2a to the corresponding quinone 1a.
The studies which led to the mechanism outlined in Scheme 4 will now be described. Both hydrolysis and the equilibrium isomerization of pure syn 2a or pure anti 2a are associated with an absorbance change at 320 nm. Plots of absorbance vs time obeyed a first-order rate law over the entire pH range studied. The kobsd values were dependent on the concentration of the buffers employed to hold pH over the range of pH=3 to 9. Lyate-dependent values of kobsd (klyate) were obtained by measuring kobsd values over a 10-fold range of buffer concentration at constant pH and then extrapolating to the klyate value at zero buffer concentration.
The rate law for the reaction of pure syn 2a, based on the mechanism shown in Scheme 4 below, is provided in Equation 1: [formula] wherein: k1, k-1, k2, k3, Ka4 and Ka5 are constants found in Scheme 4 and aH is the proton activity determined with a pH electrode. The first term of equation 1 pertains to the hydrolysis of 2aH^2+ under the conditions aH <Ka5, the second term pertains to hydrolysis of 2aH and third term pertains to the syn/anti equilibration. […] Consistent with the postulated mechanism, the kinetically-obtained value of pKa4 approximates the value obtained by spectrophotometric titration (2.6±0.3).
(§1) Kinetic Studies of Hydrolysis. The hydrolytic studies of 2a and the reoxidation studies of 19 and 20 were carried out in aerobic aqueous buffer at 30.0°±0.2° C. A dimethyl sulfoxide stock of the compound to be studied was prepared fresh and 50 μl of this stock was added to 2.95 mL of buffer. In the cases of 19 and 20, the dimethyl sulfoxide stock was kept under a blanket of argon. The absorbance vs time data were obtained on a Perkin-Elmer 559 or a Lambda-3 UV-vis spectrophotometer and fit to a first-order rate law.

[7] = syn/anti isomerization equilibrium (product study, thermodynamic cycles, NMR); type: physicochemical; settings: for K for syn/anti isomerization: aqueous buffer
Protocol: Below pH 7, the preparative reaction of pure syn 2a afforded a mixture of isomers; [syn 2a]/[anti 2a]=0.7 by ^1 H NMR. [drawing 5]
The K value (~1) for syn/anti isomerization of 2a in aqueous buffer was assessed from […] thermodynamic cycles and from a product study. The results of the product study indicate K=0.7. The two thermodynamic cycles shown in Scheme 4 indicate K=1 to 2. These thermodynamic cycles were constructed by considering that protonation of syn/anti 2a provides the same cationic species 2aH^+ and that acid dissociation from syn/anti 2a probably provides the same anionic species 2aH^-.
The thermoneutral syn/anti isomerization in aqueous buffer requires that the imino proton of anti 2a hydrogen bond to the nitrogen of the enolized acetamido group.
Product Isolation of syn 2a Reaction at pH 8. To a solution of 15 mg (0.058 mmol) of syn 2a in 1 mL of dimethyl sulfoxide was added 4 mL of pH 8 phosphate buffer. The reaction mixture was stirred at room temperature for 48 hours and then diluted with 10 mL of water and extracted 3× with 20 mL portions of chloroform. Concentration of the dried extracts (sodium sulfate) afforded 12 mg (80%) of a mixture of isomers: [syn/anti]=0.7 by ^1 H NMR.

[8] = Aerobic oxidation (oxygen reactivity) of reduced species in aqueous buffer; type: physicochemical
Protocol: The oxygen reactivity of 19 and 20 was studied in aerobic buffers (μ=1.0, KCl) at 30° C. Both of these species are converted to the corresponding oxidized analogues, 2a and 1a, by first-order processes. Isolation studies and UV-visible spectra of completed reactions confirmed the formation of both analogues. As expected from the relative reduction potentials, the oxidation of 19 is slow enough to be studied up to pH=11 whereas the oxidation of 20 occurs at stopped-flow rates much above neutrality.
The profile for the oxidation of 19 is consistent with oxidation of both the neutral species (19) and the monoprotonated species (19H^+), see Scheme 5, below. [drawing 11] The rate law for the mechanism in Scheme 5 is found in Equation 5. […] The solid curve of Plot B in FIG. 3 was computer generated with equation 5 using the values of the constants shown in Scheme 5. Consistent with the proposed mechanism, the kinetically-determined value of Ka is nearly the same as the value determined spectrophotometrically (9.44, entry 11 of Table I). The greater oxygen reactivity of 19, compared to 19H^+, is consistent with the decreasing Em values (i.e., decreasing stability of the reduced species) observed in the Nernst Fit (Plot B, FIG. 2) at pH values>6.
as §1

[9] = comparison or calibration value; cited from earlier work
[10] = N(4)-protonated species, 30° C., μ = 1.0 (KCl)
[11] = amide proton, 30° C., μ = 1.0 (KCl)
[12] = buffer-catalyzed syn/anti isomerization

Compound: CC(=O)OC1CCn2c1nc1c2C(=O)C(C)=C(N2CC2)C1=O (centres unmarked) [1c, 6-(N-aziridinyl)-7-methyl-2,3-dihydro-1H-pyrrolo [1,2-a]benzimidazole 5,8-dione-3-Acetate]
antitumor activity [1]: potent antitumor agents | antitumor activity [2]: potent antitumor agents | antitumor activity (fresh human colon tumors): potent antitumor agents | antitumor activity [3]: potent antitumor agents

pKa [4, 10]: 1.54 ± 0.06 | pKa [4, 11]: 11.3 ± 0.13 | Eo (reduction potential at pH=0) ([5]; couple 1a/20, Nernst fit): 612 mV (NHE) | hydrolytic stability, entire pH range studied ([6]; aqueous solution, pH range -1 to 10): hydrolytically stable
Compound: CC(=O)NC1=C(C)C(=O)c2c(nc3n2CCC3)C1=O [1a, 6-Acetamido-7-methyl-2,3-dihydro-1H-pyrrolo [1,2-a]benzimidazole-5,8-dione]

pKa [4, 10]: < 0 | pKa [4, 11]: 11.24 ± 0.01 | pKa ([4]; protonated imino group (2aH^+), spectrophotometric, 30° C., μ = 1.0 (KCl)): 2.6 ± 0.3 | Eo (reduction potential at pH=0) ([5]; couple 2a/19, Nernst fit): 1.11 V (NHE) | E values of syn and anti isomers ([5]; cyclic voltammetry, syn versus anti): identical E values for both isomers | reduction potential versus quinone ([5]; iminoquinone compared with quinone analogue): much higher reduction potentials | pKa ([6]; acid dissociation of 2aH^+ (protonated imine), pH profile FIG. 1, read-out: pKa): ~2.5 | pKa ([6]; acid dissociation of diprotonated 2a, pH profile FIG. 1, read-out: pKa): < 0 | pKa ([6]; kinetically obtained, fit of equation 1, 30° C., read-out: pKa4): 3.4 | hydrolytic stability below pH 6 [6]: extremely slow | k(acetate) [6, 12]: 0.0045 M⁻¹ s⁻¹ | k(dibasic phosphate) [6, 12]: 0.000171 M⁻¹ s⁻¹ | k(monobasic phosphate) [6, 12]: 0.000421 M⁻¹ s⁻¹ | kga for acetic acid ([6]; general acid catalyzed hydrolysis, pH 3.5 to 6): 0.003 M⁻¹ s⁻¹ | k3/Ka5 ([6]; hydrolysis of diprotonated 2a, fit of equation 1, 30° C.): 0.045 M⁻¹ s⁻¹ | k2 (rate of water addition to 2aH^+) ([6]; hydrolysis of monoprotonated 2a, 30° C.): 0.048 s⁻¹ | hydrolytic stability at pH values ≥7 ([6]; pH ≥7): hydrolytically stable | hydrolysis rate at pH 7.0 ([6]; pH=7.0, worked out from pKa and k2): 1.0×10^-6 s^-1 | k1 + k-1 ([6]; syn/anti equilibration, lyate term, above pH 7, 30° C.): 1.03e-05 s⁻¹ | K for syn/anti isomerization ([7]; overall): ~ 1 | K for syn/anti isomerization ([7]; product study): 0.7
Compound: CC(=O)NC1=C(C)C(=O)c2c(nc3n2CCC3)C1=N [2a, syn/anti 6-Acetamido-5-imino-7-methyl-2,3-dihydro-1H-pyrrolo[1,2-a]benzimidazol-8-one]
hydrolytic stability much below pH 6 / in acid ([6]; acid, much below pH 6): rapidly hydrolyses; also recorded: rapidly hydrolyzed

hydrolytic stability below pH 6 [6]: extremely slow
Compound: CC(=O)NC1=C(C)C(=O)c2c(nc3n2CCC3OC(C)=O)C1=N (racemic) [2b, syn/anti 6-Acetamido-5-imino-7-methyl-2,3-dihydro-1H-pyrrolo[1,2-a]benzimidazol-8-one-3-Acetate]

pKa ([4]; 5-OH of hydroquinone, 30° C., μ = 1.0 (KCl)): 11.1 | pKa ([4]; 8-OH of hydroquinone (20^- to 20^2-), 30° C., μ = 1.0 (KCl), approximated): > 14 | pKa [4, 10]: 6.02 ± 0.2 | pKa [4, 11]: > 14 | oxidation rate above pH 7.5 ([8]; above pH 7.5): too fast to measure | oxidation rate of 20^- ([8]; assuming rate-determining oxidation of 20^-): 1566 s⁻¹
Compound: CC(=O)Nc1c(C)c(O)c2c(nc3n2CCC3)c1O [compound 20]

completed hydrolysis, product by UV-visible spectra ([6]; pH 0 to pH 6): quantitative formation of 1a | K for syn/anti equilibration ([7]; dimethyl sulfoxide-d6): 15 | [syn]/[anti] ratio ([7]; preparative reaction of pure syn 2a, ^1 H NMR, pH 8 phosphate buffer, 48 hours): 0.7
Compound: CC(=O)NC1=C(C)C(=O)c2c(nc3n2CCC3)C1=N [syn 2a, 6-Acetamido-5-imino-7-methyl-2,3-dihydro-1H-pyrrolo[1,2-a]benzimidazol-8-one]

Compound: CC1=C(N2CC2)C(=O)c2nc3n(c2C1=O)CCC3OC(N)=O (centres unmarked) [1d, 6-N-Aziridinyl-7-methyl-2,3-dihydro-1H-pyrrolo [1,2-a]benzimidazole-5,8-dione-3-Carbamate]
antitumor activity [1]: potent antitumor agents | antitumor activity [2]: potent antitumor agents | antitumor activity (fresh human colon tumors): potent antitumor agents | antitumor activity [3]: potent antitumor agents

pKa [4, 10]: 3.67 ± 0.16 | pKa ([4]; dissociation of hydroxyl, amide and amine protons: 19^2- to 19^3-, approximated): > 15 | pKa ([4]; dissociation of hydroxyl, amide and amine protons: 19^- to 19^2-, approximated): > 15 | pKa ([4]; dissociation of hydroxyl, amide and amine protons: 19 to 19^-, approximated): > 15 | pKa ([4]; protonated 5-amino group (19H^+), 30° C., μ = 1.0 (KCl)): 9.44 | stability of reduced species in acid ([5]; acid solution): acid-stable | reoxidation rate relative to 20 ([8]; physiological pH): two orders of magnitude slower | fold slower oxidation than 20 ([8]; physiological pH (7.4)): about 100 ×
Compound: CC(=O)Nc1c(C)c(O)c2c(nc3n2CCC3)c1N [compound 19, 6-Acetamido-5-amino-8-hydroxy-7-methyl-2,3-dihydro-1H-pyrrolo[1,2-a]benzimidazole]

Compound: N#CC1=C(C#N)C(=O)C(Cl)=C(Cl)C1=O [dichlorodicyanoquinone (DDQ), dichlorodicyanoquinone]
Eo [9]: 946 mV, NHE
